The values below come from US20250099466A1 (BRISTOL-MYERS SQUIBB COMPANY, priority 2021, published 2025).

Each structure is given as a SMILES string.

For this data set, the system named is electrically induced carotid artery thrombus (ECAT) in rabbits. Put plainly: Prevention rabbit model of electrically induced carotid artery thrombus (ECAT). It is filed as in vivo. The method, then: The rabbit ECAT model as described by Wong et al., Nonpeptide factor Xa inhibitors: II.
Male New Zealand white rabbits were anesthetized with ketamine (50 mg/kg+50 mg/kg/h intramuscularly) and xylazine (10 mg/kg+10 mg/kg/h intramuscularly). Thrombosis was induced by electrical stimulation of the control carotid artery for 3 minutes at 4 mA using an external stainless-steel bipolar electrode. Carotid blood flow was measured with an electromagnetic flow probe continuously over a 90-minute period to monitor thrombosis induced occlusion. Integrated carotid blood flow was measured by the area under the flowtime curve (see Wong et al.). In addition, thrombus from the injured artery was removed, blotted twice on a weighing paper to remove residual fluid, and weighed.
To achieve a stable plasma level with minimum experimental variability, compounds were administered by IV infusion. […] The IV infusion was continued throughout the experiment for both models.
Integrated blood flow, thrombus weight, aPTT (activated partial thromboplastin time), TT (thrombin time), and PT (prothrombin time) were also measured.

For the setting “highest dose (1+0.67 mg/kg+mg/kg/h IV), prevention ECAT”, `C[C@@H]1CCC[C@H](n2cnc(-c3cc(Cl)ccc3-n3cc(Cl)nn3)cc2=O)c2cc(ccn2)-c2c(cnn2C(F)F)NC1=O` [milvexian, (5R,9S)-9-(4-(5-chloro-2-(4-chloro-1H-1,2,3-triazol-1-yl)phenyl)-6-oxopyrimidin-1(6H)-yl)-21-(difluoromethyl)-5-methyl-21H-3-aza-1(4,2)-pyridina-2(5,4)-pyrazolacyclononaphan-4-one] displayed a thrombus weight reduction of 70±2%. Also, the “integrated blood flow, % of the control level” value (highest dose (1+0.67 mg/kg+mg/kg/h IV), prevention ECAT, n=6) is reported as 76±5%. Besides, where the note is “prevention ECAT, 0.063+0.04, 0.25+0.17, 1+0.67 mg/kg+mg/kg/h IV”, the “duration of the patency of the carotid artery” value was “dose-dependent increase in duration of the patency of the carotid artery”. Further, the bleeding time entry (rabbit) is recorded as “without a significant increase in bleeding time”. Besides, for the setting “total plasma concentration, thrombus weight reduction, prevention ECAT”, the “antithrombotic 20% maximal effective concentration (EC20)” value was determined as 55 nM.
